The source of these data is US11998543B2, “Pharmaceutical composition comprising aldehyde inhibitor and anticancer agent for treatment of brain cancer” (Industry-Academic Cooperation Foundation, Yonsei University, priority 2018, dated 2024).

For series [1], the system named is U87 cells. The experiment in a line: WST cytotoxicity / cell viability assay (EZ-Cytox), 72 h drug treatment. As to conditions: for Measured value (cell viability) / Value expressed relative to administration alone: U87; for Measured value (cell viability): G and P 10 μM each; for Measured value (cell viability) / Cancer cell killing (cytotoxicity), comparison in words: 72 h; for Value expressed relative to administration alone: viability with anticancer drug alone set to 1; for Cancer cell killing (cytotoxicity), comparison in words: spherical U87 cells, compared with single agents or other combinations, PTX and 5-FU at high concentration (H) vs TMZ alone. The format is cell-based. The procedure: (§1) Cultured tumorsphere-forming glioblastoma cells (GBM TS) were seeded into 96-well plates at a density of 10^4 cells/well and treated for 72 hours with a drug-containing medium prepared in a Preparation Example (a control group was treated with general culture medium), and then cytotoxicity to the cancer cells was measured by WST assay using EZ-Cytox reagent (DoGenBio, Seoul, Korea) according to the manufacturer's protocol.
(§2) For the present disclosure, two types of tumorsphere (TS)-forming glioblastoma (GBM) cells were used. TS13-64 cells are primary tumor cells derived from a GBM patient, and established from a new GBM tissue sample under the approval of the Institutional Review Board of the Yonsei University College of Medicine (approval Nos: 4-2012-0212 and 4-2014-0649). As U87 cells, spherical cells prepared by culturing the U87MG cell line under TS culture conditions were used. For TS culture, cells were treated with DMEM/F-12 medium containing 2 wt % 1×B27, 0.02 wt % bFGF (20 ng/ml), 0.02 wt % EGF (20 ng/ml) and 50 U/ml penicillin/[…] streptomycin (100×, Gibco, Invitrogen Korea, Seoul, South Korea), and all in vitro experiments were performed under TS culture conditions.
(§3) For use in in vitro experiments, gossypol (G) and phenformin (P, Sigma-Aldrich) were dissolved in DMSO and H2O, respectively, at a concentration of 10 μM. The anticancer drug temozolomide (TMZ, Sigma-Aldrich) was dissolved in DMSO and used at a concentration of 250 μM. As controls for the anticancer drug TMZ for co-administration with gossypol and phenformin, other anticancer drugs, paclitaxel (PTX) and fluorouracil (5-FU), were used. […] That is, in the same manner as TMZ, paclitaxel was prepared and used at a low concentration of 2 nM and a high concentration of 5 nM, and fluorouracil was prepared and used at a low concentration of 50 μM and a high concentration of 100 μM (low concentration is indicated by L, and high concentration is indicated by H).
(§4) Cultured tumorsphere-forming glioblastoma cells (GBM TS) were seeded into 96-well plates at a density of 10^4 cells/well and treated for 72 hours with a drug-containing medium prepared in the Preparation Example (a control group was treated with general culture medium), and then cytotoxicity to the cancer cells was measured by WST assay using EZ-Cytox reagent (DoGenBio, Seoul, Korea) according to the manufacturer's protocol.
(§5) Evaluation of cytotoxicity to cancer cells and the sphere-forming ability of cells was performed in the same manner as in Example 1.
(§6) In order to more easily compare these effects, the cell viability value obtained upon administration of each anticancer drug alone was set to 1, and the cell viability value obtained upon co-administration was expressed relative to the cell viability value obtained upon administration of each anticancer drug alone.

In series [2] the test system is TS13-64 cells. Described as above. The format is cell-based, human. The following applies: for Measured value (cell viability) / Value expressed relative to administration alone: TS13-64; for Measured value (cell viability): G and P 10 μM each; for Measured value (cell viability) / Cancer cell killing (cytotoxicity), comparison in words: 72 h; for Value expressed relative to administration alone: viability with anticancer drug alone set to 1; for Cancer cell killing (cytotoxicity), comparison in words: TS13-64 cells, compared with single agents or other combinations, PTX and 5-FU at high concentration (H) vs TMZ alone. The procedure:
as §1, §2, §3, §4, §5, §6

The mark [3] stands for this setting: high concentration (H): PTX 5 nM, 5-FU 100 μM.
Where [4] appears, read: low concentration (L): PTX 2 nM, 5-FU 50 μM.

Take `O=c1[nH]cc(F)c(=O)[nH]1` [5FU, fluorouracil]: the “Measured value (cell viability)” value in series [1] (setting [3]) came out at 0.804; in series [1] (setting [4]), 0.980; in series [2] (setting [3]) it was 0.756; in series [2] (setting [4]), 0.826. Also, the “Value expressed relative to administration alone” value in series [1] (setting [3]), in series [1] (setting [4]), in series [2] (setting [3]) and in series [2] (setting [4]) was 1.000 throughout. For the same compound, the “Cancer cell killing (cytotoxicity), comparison in words” value in series [1] and in series [2] was “higher” in each case.

For the compound `CC(=O)O[C@H]1C(=O)[C@@]2(C)[C@H]([C@H](OC(=O)c3ccccc3)[C@]3(O)C[C@H](OC(=O)[C@H](O)[C@@H](NC(=O)c4ccccc4)c4ccccc4)C(C)=C1C3(C)C)[C@]1(OC(C)=O)CO[C@@H]1C[C@@H]2O` [PTX, paclitaxel], the “Measured value (cell viability)” value in series [1] (setting [3]) came out at 0.720; in series [1] (setting [4]), 0.947; in series [2] (setting [3]), 0.675; in series [2] (setting [4]), 0.764. Further, the “Value expressed relative to administration alone” value in series [1] (setting [3]), in series [1] (setting [4]), in series [2] (setting [3]) and in series [2] (setting [4]) was 1.000 in each case. Also, the “Cancer cell killing (cytotoxicity), comparison in words” value in series [1] and in series [2] was “higher” throughout.

With `Cn1nnc2c(C(N)=O)ncn2c1=O` [TMZ, temozolomide], in series [1] (TMZ 250 μM), the “Measured value (cell viability)” value turned out to be 0.879 and the “Value expressed relative to administration alone” value is 1.000. Also, in series [2] (TMZ 250 μM), the “Measured value (cell viability)” value is recorded as 0.781 and the “Value expressed relative to administration alone” value is given as 1.000.
